Data reported in patent US20150111771A1, “Method for Identifying Agents Capable of Inducing Respiratory Sensitization and Array and Analytical Kits for Use in the Method” (SENZAGEN AB, priority 2012, published 2015).
Where two headings read alike, the source gives them in different places.

Columns and labels:
[1] = tested on: respiratory sensitization; conditions: cited from earlier work
[2] = Max solubility of reference chemicals in cell medium; conditions: given for non-toxic compounds insoluble at 500 μM
[3] = tested on: MUTZ-3 cells; experiment: GARD transcriptional profiling of stimulated MUTZ-3 with GARD Respiratory Prediction Signature (PCA / SVM classification); conditions: for Transcriptional profile in PCA based on GRPS, by mechanistic subdomain: 24 h stimulation, 302 GRPS transcripts (FIG. 5B, 5C)
Procedure: Cultures were maintained at 200.000 cells/ml during expansion, with a media change every 3-4 days. No differentiating steps were performed and instead, the proliferating progenitor MUTZ-3 was used for stimulations. Prior to each experiment, the cells were immunophenotyped using flow cytometry as a quality control. Cells were seeded in 6-well plates at 200.000 cells/ml. Stock solutions of each compound were prepared in either DMSO or distilled water, and were subsequently diluted so the in-well concentrations corresponded to the GARD input concentration, and in-well concentrations of DMSO were 0.1%. Cells were incubated for 24 h at 37° C. and 5% CO2. Thereafter, cells were harvested and analyzed by flow cytometry. In parallel, harvested cells were lysed in TRIzol reagent (Invitrogen) and stored at −20° C. until RNA extraction. Stimulations with chemicals were performed in three individual experiments, so that triplicates samples were obtained.
In short, a phenotypic control of MUTZ-3 was performed prior to chemical stimulation. Stimulated cells were harvested and RNA was isolated. A control of the maturity state of the cells was performed by flow cytometric analysis of CD86. Preparation of cDNA and hybridization, washing and scanning of the Human Gene 1.0 ST Arrays (Affymetrix, Santa Clara, Calif., USA) was performed, according to standardized protocols provided by the manufacturer (Affymetrix).
In short, microarray data were normalized and quality checked with the RMA algorithm, using Affymetrix Expression Console (Affymetrix). […] The biological relevance of the GRPS was explored using Ingenuity Pathways Analysis (IPA) (Ingenuity Systems, Inc. Mountain View, USA), by performing a ‘Core Analysis’. […] Biological relevance was established by exploring the Canonical Pathways associated with input molecules.
The data set was divided into a training set and a test set, consisting of 70% and 30%, of the chemical compounds, respectively. The division was performed randomly, while maintaining the proportions of sensitizers and non-sensitizers in each subset at the same ratio as in the complete data set. A test biomarker signature was identified in the training set, using ANOVA filtering and backward elimination, as described above.
In addition, the test set contained nine samples of DMSO and unstimulated controls respectively. […] Any samples included in this analysis are inappropriate to include in a test set due to the risk of over fitting.

[4] = tested on: MUTZ-3 cells; experiment: Cytotoxicity by propidium iodide staining, relative viability of stimulated cells (Rv90); type: cell-based, human; conditions: concentration yielding 90% relative viability
Procedure: All chemicals were from Sigma-Aldrich, St. Louis, Mo., USA. Compounds were dissolved in either dimethyl sulfoxide (DMSO) or distilled water.

[5] = tested on: CD86 expression of MUTZ-3 cells; experiment: CD86 expression of MUTZ-3 cells following chemical stimulation (flow cytometry); type: cell-based, human; conditions: 24 h at GARD input concentration; student's t-test vs corresponding vehicle, p<0.05, n=3
Procedure: FIG. 4: CD86 expression of MUTZ-3 cells following chemical stimulations. Data shown is an average of (chemical stimulations, n=3, DMSO and unstimulated cells (n=6), with error bars showing standard deviation. Statistical significance was determined by student's t-test, comparing each stimulation with its corresponding vehicle, with p<0.05 indicated by *.
Br J Haematol 2007, 138(3):281-290). […] Thereafter, cells were harvested and analyzed by flow cytometry.
All cell surface staining and washing steps were performed in PBS containing 1% BSA (w/v). Cells were incubated with specific mouse mAbs for 15 min at 4° C. The following mAbs were used for flow cytometry: FITC-conjugated CD1a (DakoCytomation, Glostrup, Denmark), CD34, CD86, and HLA-DR (BD Biosciences), PE-conjugated CD14 (DakoCytomation), CD54 and CD80 (BD Biosciences). Mouse IgG1, conjugated to FITC or PE were used as isotype controls (BD Biosciences) and PI was used to assess cell viability. […]
Prior to chemical challenge, the cells were quality controlled by measuring the cellular expression of common myeloid and dendritic cell markers using flow cytometry. […] Following chemical stimulation, the general maturity state of the cells was controlled again, as determined by the expression of the co-stimulatory marker CD86, with results presented in FIG. 4. […]

[6] = clinical observations in humans
[7] = external test set, biological triplicates, mapped into PCA space of train data (FIG. 6A)

## O=C=Nc1ccc(Cc2ccc(N=C=O)cc2)cc1 [Methylene diphenol diisocyanate]
[1]; [6]
  Classification of reference chemical as respiratory sensitizer or non-sensitizer: respiratory sensitizers
[2]
  Max solubility: 50 µM

## CCOC(=O)c1ccccc1C(=O)OCC [diethyl phtalate]
[3]; [7]
  Position of external test set samples in PCA plot based on the GRPS: correctly grouped together with non-sensitizers

## CCCCO [1-Butanol]
[1]
  Classification of reference chemical as respiratory sensitizer or non-sensitizer: non-sensitizers

## [Cl][Pt-2]([Cl])([Cl])([Cl])([Cl])[Cl].[NH4+].[NH4+] [Ammonium hexachloroplatinate]
[3]
  Transcriptional profile in PCA based on GRPS, by mechanistic subdomain: most extreme transcriptional changes
[1]; [6]
  Classification of reference chemical as respiratory sensitizer or non-sensitizer: respiratory sensitizers
[2]
  Max solubility: 35 µM

## CCCCCCCC(=O)O [octanoic acid]
[3]
  Position of external test set samples in PCA plot based on the GRPS: correctly grouped together with non-sensitizers

## O=C1C=CC(=O)O1 [Maleic Anhydride]
[1]
  Classification of reference chemical as respiratory sensitizer or non-sensitizer: respiratory sensitizers

## COC(=O)c1ccccc1O [Methyl salicylate]
[1]; [6]
  Classification of reference chemical as respiratory sensitizer or non-sensitizer: non-sensitizers

## OCC(O)CO [glycerol]
[3]
  Position of external test set samples in PCA plot based on the GRPS: correctly grouped together with non-sensitizers

## Clc1ccccc1 [Chlorobenzene]
[3]; [7]
  Position of external test set samples in PCA plot based on the GRPS: correctly grouped together with non-sensitizers
[1]
  Classification of reference chemical as respiratory sensitizer or non-sensitizer: non-sensitizers
[2]
  Max solubility: 98 µM

## Oc1ccccc1 [phenol]
[3]; [7]
  Position of external test set samples in PCA plot based on the GRPS: correctly grouped together with non-sensitizers

## O=S(=O)([O-])[O-].[Zn+2] [Zinc sulphate]
[1]; [6]
  Classification of reference chemical as respiratory sensitizer or non-sensitizer: non-sensitizers

## CC(O)CO (centres unmarked) [Propylene glycol]
[1]; [6]
  Classification of reference chemical as respiratory sensitizer or non-sensitizer: non-sensitizers

## O=CCCCC=O [Glutaraldehyde]
[4]
  Rv90: 10 µM
[5]
  CD86 expression following chemical stimulation: statistically significant upregulation of CD86
[3]
  Transcriptional profile in PCA based on GRPS, by mechanistic subdomain: groups closely with both acid anhydrides and diisocyanates
[1]; [6]
  Classification of reference chemical as respiratory sensitizer or non-sensitizer: respiratory sensitizers

## N.N.O=S(=O)(O)OOS(=O)(=O)O [Ammonium persulfate]
[3]
  Transcriptional profile in PCA based on GRPS, by mechanistic subdomain: most extreme transcriptional changes
[1]
  Classification of reference chemical as respiratory sensitizer or non-sensitizer: respiratory sensitizers

## O=C=NCCCCCCN=C=O [Hexamethylen diisocyanate]
[5]
  CD86 expression following chemical stimulation: statistically significant upregulation of CD86
[1]; [6]
  Classification of reference chemical as respiratory sensitizer or non-sensitizer: respiratory sensitizers
[2]
  Max solubility: 100 µM

## O=C(O)c1ccc2c(c1)C(=O)OC2=O [Trimellitic anhydride]
[1]; [6]
  Classification of reference chemical as respiratory sensitizer or non-sensitizer: respiratory sensitizers
[2]
  Max solubility: 150 µM

## O=C(O)c1ccccc1O [salicylic acid]
[3]
  Position of external test set samples in PCA plot based on the GRPS: correctly grouped together with non-sensitizers

## CCCCCCCCCCCCOS(=O)(=O)[O-].[Na+] [sodium dodecyl sulphate]
[3]; [7]
  Position of external test set samples in PCA plot based on the GRPS: correctly grouped together with non-sensitizers

## CC(C)O [Isopropanol]
[1]; [6]
  Classification of reference chemical as respiratory sensitizer or non-sensitizer: non-sensitizers

## O=C1OC(=O)c2ccccc21 [Phtalic Anhydride]
[1]; [6]
  Classification of reference chemical as respiratory sensitizer or non-sensitizer: respiratory sensitizers
[2]
  Max solubility: 200 µM

## O=Cc1ccccc1 [benzaldehyde]
[3]; [7]
  Position of external test set samples in PCA plot based on the GRPS: correctly grouped together with non-sensitizers

## CCCCCCCC/C=C\CCCCCCCC(=O)OCCOCC(OCCO)C1OCC(OCCO)C1OCCO (centres unmarked) [Tween 80, polyoxyethylene (20) sorbitan monooleate]
[1]; [6]
  Classification of reference chemical as respiratory sensitizer or non-sensitizer: non-sensitizers
